Source: PubChem BioAssay (NCI)
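Step 1: Grow cells in 96-well plates. Step 2: Expose to compound for 48 hours at 5 concentrations. Step 3: Interpolate endpoints linearly; if unreached, use highest concentration. Abbreviation: GI50, concentration required for 50% inhibition of growth. TGI: total growth inhibition.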

What was measured:
Test in all cases: NCI-60 cell line screen, 48 h
SR leukemia = tested on: SR leukemia
HCC-2998 colon = tested on: HCC-2998 colon
ACHN renal = tested on: ACHN renal
NCI/ADR-RES ovarian = tested on: NCI/ADR-RES ovarian
TK-10 renal = tested on: TK-10 renal
SN12C renal = tested on: SN12C renal
MOLT-4 leukemia = tested on: MOLT-4 leukemia
M14 melanoma = tested on: M14 melanoma
PC-3 prostate = tested on: PC-3 prostate
MALME-3M melanoma = tested on: MALME-3M melanoma
LOX IMVI melanoma = tested on: LOX IMVI melanoma
HS 578T breast = tested on: HS 578T breast
SK-MEL-5 melanoma = tested on: SK-MEL-5 melanoma
OVCAR-5 ovarian = tested on: OVCAR-5 ovarian
UO-31 renal = tested on: UO-31 renal
A549 NSCLC = tested on: A549 NSCLC
HCT-116 colon = tested on: HCT-116 colon
MDA-MB-435 = tested on: MDA-MB-435
SNB-75 CNS = tested on: SNB-75 CNS
HT29 colon = tested on: HT29 colon
IGROV1 ovarian = tested on: IGROV1 ovarian
MCF7 breast = tested on: MCF7 breast
T-47D breast = tested on: T-47D breast
A498 renal = tested on: A498 renal
EKVX NSCLC = tested on: EKVX NSCLC
UACC-62 melanoma = tested on: UACC-62 melanoma
SF-539 CNS = tested on: SF-539 CNS
CCRF-CEM leukemia = tested on: CCRF-CEM leukemia
SW-620 colon = tested on: SW-620 colon
U251 CNS = tested on: U251 CNS
SK-MEL-28 melanoma = tested on: SK-MEL-28 melanoma
NCI-H23 lung = tested on: NCI-H23 lung
UACC-257 melanoma = tested on: UACC-257 melanoma
HCT-15 colon = tested on: HCT-15 colon
BT-549 breast = tested on: BT-549 breast
MDA-MB-231 breast = tested on: MDA-MB-231 breast
SK-OV-3 ovarian = tested on: SK-OV-3 ovarian
COLO 205 colon = tested on: COLO 205 colon
OVCAR-8 ovarian = tested on: OVCAR-8 ovarian
HL-60(TB) leukemia = tested on: HL-60(TB) leukemia
KM12 colon = tested on: KM12 colon
K-562 leukemia = tested on: K-562 leukemia
SF-295 CNS = tested on: SF-295 CNS
HOP-92 NSCLC = tested on: HOP-92 NSCLC
RPMI-8226 leukemia = tested on: RPMI-8226 leukemia
786-0 renal = tested on: 786-0 renal
NCI-H226 lung = tested on: NCI-H226 lung
SNB-19 CNS = tested on: SNB-19 CNS
CAKI-1 renal = tested on: CAKI-1 renal
SK-MEL-2 melanoma = tested on: SK-MEL-2 melanoma
SF-268 CNS = tested on: SF-268 CNS
DU-145 prostate = tested on: DU-145 prostate
OVCAR-4 ovarian = tested on: OVCAR-4 ovarian
HOP-62 NSCLC = tested on: HOP-62 NSCLC
NCI-H522 lung = tested on: NCI-H522 lung

CCC1=Cc2cc(OC)ccc2OC12C=Cc1cc(OC)ccc1O2 (configuration not stated)
GI50 (SR leukemia): 327 nM
TGI (SR leukemia): > 100000 nM
GI50 (HCC-2998 colon): 1710 nM
TGI (HCC-2998 colon): > 100000 nM
GI50 (ACHN renal): 789 nM
TGI (ACHN renal): > 100000 nM
GI50 (NCI/ADR-RES ovarian): 421 nM
TGI (NCI/ADR-RES ovarian): > 100000 nM
GI50 (TK-10 renal): > 100000 nM
TGI (TK-10 renal): > 100000 nM
GI50 (SN12C renal): 796 nM
TGI (SN12C renal): > 100000 nM
GI50 (MOLT-4 leukemia): 500 nM
TGI (MOLT-4 leukemia): > 100000 nM
GI50 (M14 melanoma): 366 nM
GI50 (PC-3 prostate): 536 nM
TGI (PC-3 prostate): > 100000 nM
GI50 (MALME-3M melanoma): 624 nM
TGI (MALME-3M melanoma): > 100000 nM
GI50 (LOX IMVI melanoma): 484 nM
TGI (LOX IMVI melanoma): > 100000 nM
GI50 (HS 578T breast): 298 nM
GI50 (SK-MEL-5 melanoma): 1420 nM
TGI (SK-MEL-5 melanoma): > 100000 nM
GI50 (OVCAR-5 ovarian): 936 nM
TGI (OVCAR-5 ovarian): > 100000 nM
GI50 (UO-31 renal): 1150 nM
TGI (UO-31 renal): > 100000 nM
GI50 (A549 NSCLC): 809 nM
TGI (A549 NSCLC): > 100000 nM
GI50 (HCT-116 colon): 518 nM
TGI (HCT-116 colon): > 100000 nM
GI50 (MDA-MB-435): 228 nM
TGI (MDA-MB-435): 503 nM
GI50 (SNB-75 CNS): 218 nM
TGI (SNB-75 CNS): 720 nM
GI50 (HT29 colon): 347 nM
TGI (HT29 colon): 1270 nM
GI50 (IGROV1 ovarian): 739 nM
TGI (IGROV1 ovarian): > 100000 nM
GI50 (MCF7 breast): 389 nM
TGI (MCF7 breast): > 100000 nM
TGI (T-47D breast): > 100000 nM
GI50 (A498 renal): 250 nM
TGI (A498 renal): 827 nM
GI50 (EKVX NSCLC): 678 nM
TGI (EKVX NSCLC): > 100000 nM
GI50 (UACC-62 melanoma): 553 nM
TGI (UACC-62 melanoma): > 100000 nM
GI50 (SF-539 CNS): 328 nM
TGI (SF-539 CNS): 2150 nM
GI50 (CCRF-CEM leukemia): 398 nM
TGI (CCRF-CEM leukemia): > 100000 nM
GI50 (SW-620 colon): 385 nM
TGI (SW-620 colon): > 100000 nM
GI50 (U251 CNS): 517 nM
TGI (U251 CNS): > 100000 nM
GI50 (SK-MEL-28 melanoma): > 100000 nM
TGI (SK-MEL-28 melanoma): > 100000 nM
GI50 (NCI-H23 lung): 1070 nM
TGI (NCI-H23 lung): > 100000 nM
GI50 (UACC-257 melanoma): 977 nM
TGI (UACC-257 melanoma): > 100000 nM
GI50 (HCT-15 colon): 450 nM
TGI (HCT-15 colon): > 100000 nM
GI50 (BT-549 breast): 499 nM
TGI (BT-549 breast): 3810 nM
GI50 (MDA-MB-231 breast): 964 nM
TGI (MDA-MB-231 breast): > 100000 nM
GI50 (SK-OV-3 ovarian): 563 nM
TGI (SK-OV-3 ovarian): > 100000 nM
GI50 (COLO 205 colon): 326 nM
TGI (COLO 205 colon): 898 nM
GI50 (OVCAR-8 ovarian): 596 nM
TGI (OVCAR-8 ovarian): > 100000 nM
GI50 (HL-60(TB) leukemia): 331 nM
TGI (HL-60(TB) leukemia): > 100000 nM
GI50 (KM12 colon): 423 nM
TGI (KM12 colon): > 100000 nM
GI50 (K-562 leukemia): 379 nM
TGI (K-562 leukemia): > 100000 nM
GI50 (SF-295 CNS): 418 nM
TGI (SF-295 CNS): > 100000 nM
GI50 (HOP-92 NSCLC): 964 nM
TGI (HOP-92 NSCLC): > 26700 nM
GI50 (RPMI-8226 leukemia): 393 nM
TGI (RPMI-8226 leukemia): > 100000 nM
GI50 (786-0 renal): 676 nM
TGI (786-0 renal): > 100000 nM
GI50 (NCI-H226 lung): 1060 nM
TGI (NCI-H226 lung): > 100000 nM
GI50 (SNB-19 CNS): 550 nM
TGI (SNB-19 CNS): > 100000 nM
GI50 (CAKI-1 renal): 504 nM
TGI (CAKI-1 renal): > 100000 nM
GI50 (SK-MEL-2 melanoma): 303 nM
TGI (SK-MEL-2 melanoma): 896 nM
GI50 (SF-268 CNS): 1040 nM
TGI (SF-268 CNS): > 100000 nM
GI50 (DU-145 prostate): 481 nM
TGI (DU-145 prostate): > 100000 nM
GI50 (OVCAR-4 ovarian): > 100000 nM
TGI (OVCAR-4 ovarian): > 100000 nM
GI50 (HOP-62 NSCLC): 594 nM
TGI (HOP-62 NSCLC): > 100000 nM
GI50 (NCI-H522 lung): 283 nM
TGI (NCI-H522 lung): 936 nM
